Measurements as given in patent US8598145B2, “Mitochondrially delivered anti-cancer compounds” (priority 2008, dated 2013).
Where two headings read alike, the source gives them in different places.

Experiments:
[1] = tested on: EAhy926 cells; assay: Angiogenesis in vitro: wound-healing and tube-forming (FIG. 7); assay type: cell-based, human
Experimental: Wound-healing (A-F) and tube-forming activity (G, H) were assessed using the EC EAhy926 cells. For wound-healing activity, the cells were seeded in 35-mm Petri dishes and allowed to reach 100% confluency. The ‘injury’ was then performed, resulting in a denuded gap of 0.4-0.5 mm. Wound-healing activity in control cells and cells supplemented with 1, 5 or 10 μM MitoVES was assessed on the basis of proliferation and migration of cells into the denuded zone using a light microscope equipped with a grid and a digital camera (A). […] In panel C, representative images of injured control cells and cells treated with 10 μM MitoVES at different times are presented. […] EAhy926 cells were seeded at ˜10^5 per well in Matrigel-coated 24-well plates and allowed for 24 h to form tubes at the absence or presence of MitoVES. Complete capillaries connecting points of individual polygons (see General Materials and Methods) were counted per the field of 0.16 mm^2 and took as a measure of the tube-forming activity (F). […] At 20 h of treatment, the cells were retrieved from the Matrigel and assessed for apoptosis using the Annexin V binding method (H). Parental EAhy926 cells and their ρ^0 counterparts were seeded in Petri dishes at confluency, ‘injured’ as described above, and the wound-healing activity assessed in the absence or presence of 10 μM MitoVES (MVES) (I; see symbols above panel L). The healing rate was estimated from the slopes in panel I and plotted in […] (J). At 20 h, the cells were assessed for the level of apoptosis (K). Panel L documents tube-forming activity in Matrigel of the ρ^0 EAhy 926 cells in the absence or presence of 5 μM MitoVES. […]
To assess the effect of α-TOS on the wound-healing activity of the EAhy926 cells, the cells were seeded in […] Petri dishes and allowed to reach complete confluence. […] Regrowth of cells (wound healing) in the presence of α-TOS or α-TEA was assessed by following the kinetics of narrowing the denuded gap in the microscope equipped with a grid in the eyepiece and healing expressed as the ‘rate of filling the gap’ as the rate of healing in μm/h. […]

[2] = tested on: EAhy926 cells; conditions: level taken from Dong et al, Cancer Res 2007; cited from earlier work
[3] = tested on: MS cells; assay: ROS production by flow cytometry, mammosphere cells (FIG. 8); assay type: cell-based, human; conditions: 3 h; α-TOS 50 μM, MitoVES homologues 5 μM
Experimental: Adherent MCF7 cells and the corresponding mammosphere cells (MS) were cultured and assessed for morphological changes by microscopy (A) and for expression levels of markers as indicators of “sternness” by RT-PCR (B) and flow cytometry (C), including the expression of CD44 and CD24 (D). The adherent MCF7 cells (E) and the MS cells (F) were treated with 5 μM MitoVES, 50 μM α-TOS or 10 μM parthenolide and assessed for their sensitivity to drug induced cell death. […] Adherent MCF7 cells (I) and MS cells (J) were treated for 3 h with α-TOS (50 μM) or MitoVES homologues containing different lengths in the aliphatic side chain (5 μM each, either 11, 7 or 5 carbon chain in length) and the treated cells assessed for production of reactive oxygen species (ROS) by flow cytometry.
Cellular ROS were detected indirectly by flow cytometry and directly by electron paramagnetic resonance (EPR) spectroscopy, following treatment of cells with α-TOS as indicated in the Legend to Figures. […] For indirect evaluation, cells were treated with α-TOS and reacted with dihydrodichlorofluorescein diacetate (DCF; Molecular Probes) for 30 min, and scored by flow cytometry for cells with high fluorescence, which was evaluated on the bases on increase in mean fluorescence intensity. […]

[4] = tested on: T lymphoma cells; conditions: medium pH ~6.2 compared to pH 7.2; cited from earlier work

Structure (SMILES) | fold greater potency as antiangiogenic drug than α-TOS ([1]; relative to α-TOS) | concentration needed for comparable levels of effects on endothelial cells ([1]; same endothelial cell types) | angiogenesis in vitro ([1]; wound-healing, tube-forming and apoptosis assays) | concentration needed for comparable levels of effects on endothelial cells [2] | ROS production in MS cells [3] | greater apoptogenic efficacy at acidic pH [4]
Cc1c(C)c2c(c(C)c1OC(=O)CCC(=O)[O-])CCC(C)(CCCCCCCCCCC[P+](c1ccccc1)(c1ccccc1)c1ccccc1)O2 (stereo not drawn) [MitoVE11S] | 5 fold | 5 to 10 µM | inhibits angiogenesis in vitro | – | – | –
Cc1c(C)c2c(c(C)c1OC(=O)CCC(=O)O)CC[C@@](C)(CCC[C@H](C)CCC[C@H](C)CCCC(C)C)O2 [α-TOS, α-tocopheryl succinate, reference compound] | – | – | – | 25 to 50 µM | much lower levels | ~3 times
